Source: US12203938B2, “Levetiracetam immunoassays” (ARK Diagnostics, Inc., priority 2008, dated 2025)

Legend:
[1] = test system: antibody #12019-P8; experiment: Specificity / crossreactivity of the immunoassay with levetiracetam metabolite; assay type: binding, rabbit; settings: for % Cross Reactivity: 100 × apparent concentration of levetiracetam / concentration of crossreactant
Source text: Antibodies obtained using any of the disclosed techniques are screened or purified not only for their ability to react with levetiracetam, but for a low cross-reactivity with potential interfering substances. “Cross-reactivity” may be determined in a quantitative immunoassay by establishing a standard curve using known dilutions of the target analyte, levetiracetam. The standard curve is then used to calculate the apparent concentration of the interfering substance present in various known amounts in samples assayed under similar condition. The cross-reactivity can be calculated as the apparent concentration divided by the actual concentration multiplied by 100. A certain immunoassay for determining cross-reactivity is a homogeneous enzyme immunoassay using a wild type G6PDH as described in U.S. Pat. No. 3,817,837 or mutant G6PDH engineered to contain a cysteine per subunit as described in U.S. Pat. Nos. 6,033,890, 6,090,567 and 6,455,288. Furthermore, the cross-reactivity can be determined in the same type of immunoassay in which the antibody will ultimately be used.
(§1) The levetiracetam derivative antibodies and enzyme conjugates may be advantageously used in a homogeneous assay format to detect levetiracetam in samples. An enzyme immunoassay or ARK Assay, which is a homogeneous enzyme immunoassay experiment, was performed to test antibodies prepared as described in Example 22. The ARK Assay for levetiracetam was conducted using a liquid, ready-to-use, two-reagent kit. A clinical chemistry analyzer useful to set up the assay is HITACHI 917. The HITACHI 917 is an automated biochemistry analyzer used by medical laboratories to process biological fluid specimens, such as urine, cerebrospinal fluid, and most commonly, blood. Manufactured by Boehringer Mannheim, the HITACHI 917 is a commonly used routine chemical chemistry. Levetiracetam containing sample was incubated with antibody reagent followed by the addition of the enzyme conjugate reagent. The enzyme conjugate activity decreases upon binding to the antibody. […] The oxidation of G6P is coupled with the reduction of NAD to NADH, which was measured at 340 nm. The change in the absorbance at 340 nm was measured spectrophotometrically. The levetiracetam concentration in a specimen was measured in terms of G6PDH activity. The increase in the rate at 340 nm was due to the formation of NADH and is proportional to the enzyme conjugate activity. An assay calibration curve was generated using levetiracetam spiked into negative calibrator matrix. The assay rate increases with increasing the concentration of drug in the sample.
The major metabolic pathway of levetiracetam (24% of dose) is an enzymatic hydrolysis of the acetamide group. The metabolites have no known pharmacological activity and are renally excreted. To human serum negative for levetiracetam was added levetiracetam dissolved in methanol to achieve a concentration of concentration of 30 μg/mL of levetiracetam (FIG. 1(1)).
To a second sample was added 2-pyrrolidone-N-butyric acid dissolved in methanol to achieve a concentration of 150.0 μg/mL 2-pyrrolidone-N-butyric acid (FIG. 1(2)). To a third sample was added 30 μg/mL of levetiracetam plus 406.4 μg/mL 2-pyrrolidone-N-butyric acid (FIG. 1(2)). The samples were assayed on the HITACHI 917. The levetiracetam metabolite, 2-pyrrolidone-N-butyric acid was tested in the immunoassay for potential crossreactivity with Enzyme Conjugate Reagent #110607-D63-E containing conjugate (44-G6PDH) and Antibody Reagent #11341P4-6-Ab containing antibody #12019-P8.

[2] = in vivo; cited from earlier work
[3] = test system: rabbit polyclonal antibody #12019-P8; experiment: Homogeneous enzyme immunoassay (ARK Assay) calibration curve on HITACHI 917, conjugate (44-G6PDH); assay type: binding
Description: Rabbit polyclonal antibody #12019-P8 was used to measure a substantial change in enzyme activity, generate a calibration curve, and evaluate assay precision, accuracy and specificity. The antibody was added into the antibody diluent to prepare the antibody reagent. The antibody reagent consists of antibody as prepared above, buffer, stabilizers, preservatives, and the substrates for the enzyme conjugate nicotinamide adenine dinucleotide (NAM and glucose-6-phosphate. Enzyme conjugate comprising compound (44-G6PDH) G6PDH was added into the conjugate reagent to prepare the enzyme conjugate reagent. The enzyme conjugate reagent comprises the conjugate, buffer, stabilizers and preservatives. Enzyme conjugate (44-G6PDH) was used with rabbit polyclonal antibody #12019-P8 in examples below. This technique is generally applicable to produce polyclonal antibodies to levetiracetam derivatives and assess their utility.
as §1
Levetiracetam was dissolved in methanol to give a stock solution of 1000 μg/mL. Pooled human serum was aliquoted in 10 mL portions. Levetiracetam stock solution was added to the aliquots of human serum in preparing a series of known concentrations of levetiracetam calibrators ranging from 0 to 100 μg/mL. Similarly, Quality Control samples were prepared (15.0, 35.0 and 75.0 μg/mL). The antibody/substrate reagent #11341P4-6-Ab containing antibody ##12019-P8 was assayed with enzyme reagent #110607-D63-E containing conjugate (44-G6PDH). Calibration curves were generated on the HITACHI 917 automated clinical chemistry analyzer, as described in Example 23 by assaying each level in duplicate.

| Molecule | Levetiracetam Result ([1]; Concentration Tested 150.0 μg/mL in human serum) [µg/mL] | % Cross Reactivity ([1]; Concentration Tested 150.0 μg/mL) [%] | Levetiracetam Result ([1]; Concentration Tested 406.4 μg/mL in human serum) [µg/mL] | % Cross Reactivity ([1]; Concentration Tested 406.4 μg/mL) [%] | Crossreactivity of antibody #12019-P8 (in words) ([1]; conjugate (44-G6PDH), HITACHI 917) | Levetiracetam Result ([1]; Concentration Tested 30.0 μg/mL in human serum) [µg/mL] | % Cross Reactivity ([1]; Concentration Tested 30.0 μg/mL) [%] | Major metabolic pathway: enzymatic hydrolysis of the acetamide group [2] | Reaction Rate (mA/min) Average of Duplicates ([3]; levetiracetam calibrator 5.0 μg/mL in pooled human serum) [mA/min] | Reaction Rate (mA/min) Average of Duplicates ([3]; levetiracetam calibrator 10.0 μg/mL in pooled human serum) [mA/min] | Reaction Rate (mA/min) Average of Duplicates ([3]; levetiracetam calibrator 25.0 μg/mL in pooled human serum) [mA/min] | Reaction Rate (mA/min) Average of Duplicates ([3]; levetiracetam calibrator 50.0 μg/mL in pooled human serum) [mA/min] | Reaction Rate (mA/min) Average of Duplicates ([3]; levetiracetam calibrator 100.0 μg/mL in pooled human serum) [mA/min] |
| --- | --- | --- | --- | --- | --- | --- | --- | --- | --- | --- | --- | --- | --- |
| 2-pyrrolidone-N-butyric acid | 0 | 0 | 0 | 0 | does not crossreact |  |  |  |  |  |  |  |  |
| CC[C@@H](C(N)=O)N1CCCC1=O (single isomer, unassigned) [Levetiracetam] |  |  |  |  |  | 29.9 | 100 | 24 % of dose | 547.4 | 561.2 | 586.9 | 607.5 | 626.0 |
